Measured values as given in US12310975B2, “Modulators of BCL6 proteolysis and associated methods of use” (Arvinas Operations, Inc., priority 2019, dated 2025).

Experiments:
[1] = biological target: T1, BCL6 (Homo sapiens (Human), UniProt P41182); experiment: BCL6 TR-FRET assay (BCL6-Avitag-Biotin / BCoR-Cy5 peptide); assay type: binding
Method: Protein Synthesis. BCL6 protein was expressed by transforming Invitrogen One Shot cells with GS63525 pET24a-His-SUMO-TEV-BCLm-Avitag plasmid following manufacturer's instructions. In addition, biotin at a final concentration of 50 μM, and IPTG at a final concentration of 1 mM was added to the culture and incubated at room temperature shaking overnight.
Assay buffer A: 50 mM HEPES pH 7.5, 125 mM NaCl, 0.01% TritonX.
Assay buffer B (made fresh): buffer A+1 mM Glutathione (or 0.5 mM DTT).
Assay buffer C (made fresh): buffer B+0.03% BSA.
Black Proxy plates, 96 well.
15 μl final reaction volumes (BCoR-Cy5 100 nM, SA-Eu 2 nM, BCL6-avitag 2 nM).
[…] BCL6-Avitag-Biotin stock: made fresh by adding 2 μl of BCL6-Avitag-Biotin to 31.5 ml Buffer C.
1 mM BCoR-Cy5 peptide (LifeTein) stock in Dimethylformamide (DMF).
300 nM BCoR-Cy5 working stock: made fresh by adding 4.5 μl of the 1 mM BCoR-Cy5 peptide stock to 15 ml Buffer B.
10 μM Eu-Streptavidin (Lance Eu-W1024 Streptavidin, PerkinElmer) stock solution.
6 nM Eu-Streptavidin working stock: made fresh by adding 9 μl Eu-Streptavidin stock solution to 15 ml Buffer A.
Compounds were diluted to 10 mM. Twenty microliters of DMSO was aliquoted to each well of the microtiter plates. From the 10 mM compound stock, 8.7 ul was aliquoted to the 20 ul DMSO and 3-fold serial dilutions (12 pt 3-0.01 uM tritration plate, 96 well, 100% DMSO) performed. Five ul from the titration plate wells was aliquoted to 45 ul Buff C (Intermediate dilution plates, 10% DMSO).
Spot 1.5 μl compound titrations to 384-well plates in duplicate, and spot 3.5 μl [8.5 nM] BCL6-bio protein to each well. The plate was mix briefly, centrifuged, and incubated for 30 minutes at room temperature.
Mix 14 mls of BCoR-Cy5 [300 nM] and 14 mls [6 nM] Eu-Streptavidin. Spot 10 μl BCoR-Cy5/SA-Eu (1:1) mix to each well. The plates were incubated for 2 hours and then read on an Envision plate reader.

[2] = biological target: T1, BCL6; experiment: Immunofluorescence high content imaging of BCL6 degradation in T47D cells; assay type: cell-based; details: for Dmax: T47D; for DC50: class symbols A-D, read-out: EC50 (nM)*
How it was run: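 T47D cells were treated for 3 days at 37 °C with 11-point 3-fold dilutions of bifunctional degrader (final top 0.1 or 1 μM). BCL6 was detected by immunofluorescence after PFA fixation, with Hoechst and cell mask counterstains, and imaged at 10×, 4 fields/well.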

[3] = class symbols A-D, read-out: IC50 (nM)***

| Structure (SMILES) | IC50 ([1]; read-out: IC50) [nM] | Dmax [2] [%] | IC50 [1, 3] [nM] | Dmax ([2]; maximum, class symbols A-C) [%] | DC50 [2] [nM] | EC50 [1] [nM] | IC50 [2] [nM] |
| --- | --- | --- | --- | --- | --- | --- | --- |
| CNC(=O)COc1cc2cc(Nc3nc(N4CCN(CC5CCN(c6cc(OC)cc(C(=O)NC7CCC(=O)NC7=O)c6F)CC5)CC4)ncc3Cl)ccc2n(C)c1=O (centres unmarked) [compound 465, 3-[4-({4-[5-chloro-4-({1-methyl-3-[(methylcarbamoyl)methoxy]-2-oxo-1,2-dihydroquinolin-6-yl}amino)pyrimidin-2-yl]piperazin-1-yl}methyl)piperidin-1-yl]-N-(2,6-dioxopiperidin-3-yl)-2-fluoro-5-methoxybenzamide] | < 10 | 50 to 70 | – | – | – | – | – |
| CNC(=O)COc1cc2cc(Nc3nc(N4CCC(OCCCCOc5cc(-c6scnc6C)ccc5CNC(=O)[C@@H]5C[C@@H](O)CN5C(=O)C(c5cc(C)no5)C(C)C)CC4)ncc3Cl)ccc2n(C)c1=O (stereo partly drawn) [compound 159, (2S,4R)-N-(2-(4-((1-(5-chloro-4-((1-methyl-3-(2-(methylamino)-2-oxoethoxy)-2-oxo-1,2-dihydroquinolin-6-yl)amino)pyrimidin-2-yl)piperidin-4-yl)oxy)butoxy)-4-(4-methylthiazol-5-yl)benzyl)-4-hydroxy-1-(3-methyl-2-(3-methylisoxazol-5-yl)butanoyl)pyrrolidine-2-carboxamide] | – | – | 10 to 50 | < 50 | > 100 | – | – |
| CNC(=O)COc1cc2cc(Nc3nc(N4CCN(CC5CCN(c6ccc7c(c6)C(=O)N(C6CCC(=O)NC6=O)C7=O)CC5)C(=O)C4)ncc3Cl)ccc2n(C)c1=O (centres unmarked) [compound 201, 2-((6-((5-chloro-2-(4-((1-(2-(2,6-dioxopiperidin-3-yl)-1,3-dioxoisoindolin-5-yl)piperidin-4-yl)methyl)-3-oxopiperazin-1-yl)pyrimidin-4-yl)amino)-1-methyl-2-oxo-1,2-dihydroquinolin-3-yl)oxy)-N-methylacetamide] | – | ≥ 70 | – | – | – | 10 to 50 | ≥ 100 |
| CNC(=O)COc1cc2cc(Nc3nc(N4CCC(OCCOCCOCCOCCOCCOc5ccc6c(c5)CN(C5CCC(=O)NC5=O)C6=O)CC4)ncc3Cl)ccc2n(C)c1=O (centres unmarked) [compound 62, 2-((6-((5-chloro-2-(4-((14-((2-(2,6-dioxopiperidin-3-yl)-1-oxoisoindolin-5-yl)oxy)-3,6,9,12-tetraoxatetradecyl)oxy)piperidin-1-yl)pyrimidin-4-yl)amino)-1-methyl-2-oxo-1,2-dihydroquinolin-3-yl)oxy)-N-methylacetamide] | – | – | 10 to 50 | ≥ 70 | > 100 | – | – |
| CC(=O)COc1cc2cc(Nc3nc(N4CCN(CC5CCN(c6ccc7c(c6)C(=O)N(C6CCC(=O)NC6=O)C7=O)CC5)CC4)ncc3Cl)ccc2n(C)c1=O (centres unmarked) [compound 148, 5-(4-((4-(5-chloro-4-((1-methyl-2-oxo-3-(2-oxopropoxy)-1,2-dihydroquinolin-6-yl)amino)pyrimidin-2-yl)piperazin-1-yl)methyl)piperidin-1-yl)-2-(2,6-dioxopiperidin-3-yl)isoindoline-1,3-dione] | – | – | < 10 | 50 to 70 | 10 to 50 | – | – |
| CNC(=O)COc1cc2cc(Nc3nc(N4CCC(CN5CCN(c6cc(OC)cc(C(=O)NC7CCC(=O)NC7=O)c6F)CC5)CC4)ncc3Cl)ccc2n(C(C)C)c1=O (centres unmarked) [compound 466, 3-[4-({1-[5-chloro-4-({3-[(methylcarbamoyl)methoxy]-2-oxo-1-(propan-2-yl)-1,2-dihydroquinolin-6-yl}amino)pyrimidin-2-yl]piperidin-4-yl}methyl)piperazin-1-yl]-N-(2,6-dioxopiperidin-3-yl)-2-fluoro-5-methoxybenzamide] | < 10 | 50 to 70 | – | – | – | – | – |
| CC(=O)COc1cc2cc(Nc3nc(N4CCC(OC5CCN(c6ccc7c(c6)C(=O)N(C6CCC(=O)NC6=O)C7=O)CC5)CC4)ncc3Cl)ccc2n(C)c1=O (centres unmarked) [compound 170, 5-(4-((1-(5-chloro-4-((1-methyl-2-oxo-3-(2-oxopropoxy)-1,2-dihydroquinolin-6-yl)amino)pyrimidin-2-yl)piperidin-4-yl)oxy)piperidin-1-yl)-2-(2,6-dioxopiperidin-3-yl)isoindoline-1,3-dione] | – | – | 10 to 50 | < 50 | 50 to 100 | – | – |
| CC(=O)COc1cc2cc(Nc3nc(N4CC(OCCN5CCN(c6ccc7c(c6)C(=O)N(C6CCC(=O)NC6=O)C7=O)CC5)C4)ncc3Cl)ccc2n(C)c1=O (centres unmarked) [compound 172, 5-(4-(2-((1-(5-chloro-4-((1-methyl-2-oxo-3-(2-oxopropoxy)-1,2-dihydroquinolin-6-yl)amino)pyrimidin-2-yl)azetidin-3-yl)oxy)ethyl)piperazin-1-yl)-2-(2,6-dioxopiperidin-3-yl)isoindoline-1,3-dione] | – | – | ≥ 100 | – | > 100 | – | – |
| CC(=O)[C@@H](C)Oc1cc2cc(Nc3nc(N4CCC(CN5CCN(c6ccc7c(c6)C(=O)N([C@H]6CCC(=O)NC6=O)C7=O)CC5)CC4)ncc3Cl)ccc2n(C)c1=O [compound 216, 5-(4-((1-(5-chloro-4-((1-methyl-2-oxo-3-(((R)-3-oxobutan-2-yl)oxy)-1,2-dihydroquinolin-6-yl)amino)pyrimidin-2-yl)piperidin-4-yl)methyl)piperazin-1-yl)-2-((S)-2,6-dioxopiperidin-3-yl)isoindoline-1,3-dione] | – | < 50 | – | – | – | > 100 | 10 to 50 |

Next, values leading:

| IC50 ([1]; read-out: IC50) [nM] | Dmax [2] [%] | IC50 [1, 3] [nM] | Dmax ([2]; maximum, class symbols A-C) [%] | DC50 [2] [nM] | EC50 [1] [nM] | IC50 [2] [nM] | Structure (SMILES) |
| --- | --- | --- | --- | --- | --- | --- | --- |
| < 10 | < 50 | – | – | – | – | – | CNC(=O)COc1cc2cc(Nc3nc(N4CCC5(CC4)CCN(C4CCN(c6ccc7c(c6)C(=O)N(C6CCC(=O)NC6=O)C7=O)CC4)C5)ncc3Cl)ccc2n(C(C)C)c1=O (centres unmarked) [compound 514, 2-[(6-{[5-chloro-2-(2-{1-[2-(2,6-dioxopiperidin-3-yl)-1,3-dioxo-2,3-dihydro-1H-isoindol-5-yl]piperidin-4-yl}-2,8-diazaspiro[4.5]decan-8-yl)pyrimidin-4-yl]amino}-2-oxo-1-(propan-2-yl)-1,2-dihydroquinolin-3-yl)oxy]-N-methylacetamide] |
| 10 to 50 | < 50 | – | – | – | – | – | CNC(=O)COc1cc2cc(Nc3nc(N(C)C)ncc3Cl)ccc2n(CCCOc2ccc3c(c2)C(=O)N(C2CCC(=O)NC2=O)C3=O)c1=O (centres unmarked) [compound 469, 2-[(6-{[5-chloro-2-(dimethylamino)pyrimidin-4-yl]amino}-1-(3-{[2-(2,6-dioxopiperidin-3-yl)-1,3-dioxo-2,3-dihydro-1H-isoindol-5-yl]oxy}propyl)-2-oxo-1,2-dihydroquinolin-3-yl)oxy]-N-methylacetamide] |
| < 10 | 50 to 70 | – | – | – | – | – | CNC(=O)COc1cc2cc(Nc3nc(N4CCC(N5CCC6(CCN(c7cccc8c7C(=O)N(C7CCC(=O)NC7=O)C8=O)CC6)C5)CC4)ncc3Cl)ccc2n(C(C)C)c1=O (centres unmarked) [compound 527, 2-[(6-{[5-chloro-2-(4-{8-[2-(2,6-dioxopiperidin-3-yl)-1,3-dioxo-2,3-dihydro-1H-isoindol-4-yl]-2,8-diazaspiro[4.5]decan-2-yl}piperidin-1-yl)pyrimidin-4-yl]amino}-2-oxo-1-(propan-2-yl)-1,2-dihydroquinolin-3-yl)oxy]-N-methylacetamide] |
| < 10 | ≥ 70 | – | – | – | – | – | CNC(=O)COc1cc2cc(Nc3nc(N4CCC(CN5CC(N6CCC(c7ccc8c(c7)C(=O)N(C7CCC(=O)NC7=O)C8=O)CC6)C5)CC4)ncc3Cl)ccc2n(C(C)C)c1=O (centres unmarked) [compound 538, 2-({6-[(5-chloro-2-{4-[(3-{4-[2-(2,6-dioxopiperidin-3-yl)-1,3-dioxo-2,3-dihydro-1H-isoindol-5-yl]piperidin-1-yl}azetidin-1-yl)methyl]piperidin-1-yl}pyrimidin-4-yl)amino]-2-oxo-1-(propan-2-yl)-1,2-dihydroquinolin-3-yl}oxy)-N-methylacetamide] |
